Assay results published in PubChem BioAssay (NCI).
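The compound was tested at five concentrations on cells cultured in 96-well plates, with a 48-hour exposure period. Abbreviation: GI50, concentration required for 50% inhibition of growth. TGI: total growth inhibition.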

Key:
Assay in all cases: NCI tumour cell line growth inhibition, 48 h
HOP-62 NSCLC = test system: HOP-62 NSCLC
SF-268 CNS = test system: SF-268 CNS
HL-60(TB) leukemia = test system: HL-60(TB) leukemia
CAKI-1 renal = test system: CAKI-1 renal
SNB-75 CNS = test system: SNB-75 CNS
MCF7 breast = test system: MCF7 breast
TK-10 renal = test system: TK-10 renal
OVCAR-4 ovarian = test system: OVCAR-4 ovarian
T-47D breast = test system: T-47D breast
NCI-H460 lung = test system: NCI-H460 lung
SF-295 CNS = test system: SF-295 CNS
SK-MEL-5 melanoma = test system: SK-MEL-5 melanoma
ACHN renal = test system: ACHN renal
NCI-H522 lung = test system: NCI-H522 lung
MOLT-4 leukemia = test system: MOLT-4 leukemia
IGROV1 ovarian = test system: IGROV1 ovarian
SK-MEL-2 melanoma = test system: SK-MEL-2 melanoma
HCC-2998 colon = test system: HCC-2998 colon
SN12C renal = test system: SN12C renal
LOX IMVI melanoma = test system: LOX IMVI melanoma
HOP-92 NSCLC = test system: HOP-92 NSCLC
SW-620 colon = test system: SW-620 colon
DU-145 prostate = test system: DU-145 prostate
UACC-257 melanoma = test system: UACC-257 melanoma
M14 melanoma = test system: M14 melanoma
K-562 leukemia = test system: K-562 leukemia
SF-539 CNS = test system: SF-539 CNS
RPMI-8226 leukemia = test system: RPMI-8226 leukemia
HS 578T breast = test system: HS 578T breast
SNB-19 CNS = test system: SNB-19 CNS
U251 CNS = test system: U251 CNS
MDA-MB-231 breast = test system: MDA-MB-231 breast
HT29 colon = test system: HT29 colon
RXF 393 renal = test system: RXF 393 renal
HCT-15 colon = test system: HCT-15 colon
COLO 205 colon = test system: COLO 205 colon
BT-549 breast = test system: BT-549 breast
SK-MEL-28 melanoma = test system: SK-MEL-28 melanoma
NCI-H226 lung = test system: NCI-H226 lung
MDA-MB-435 = test system: MDA-MB-435
KM12 colon = test system: KM12 colon
OVCAR-3 ovarian = test system: OVCAR-3 ovarian
A498 renal = test system: A498 renal
EKVX NSCLC = test system: EKVX NSCLC
A549 NSCLC = test system: A549 NSCLC
SK-OV-3 ovarian = test system: SK-OV-3 ovarian
OVCAR-5 ovarian = test system: OVCAR-5 ovarian
HCT-116 colon = test system: HCT-116 colon
CCRF-CEM leukemia = test system: CCRF-CEM leukemia
UO-31 renal = test system: UO-31 renal
MALME-3M melanoma = test system: MALME-3M melanoma
OVCAR-8 ovarian = test system: OVCAR-8 ovarian
786-0 renal = test system: 786-0 renal
SR leukemia = test system: SR leukemia
NCI/ADR-RES ovarian = test system: NCI/ADR-RES ovarian
UACC-62 melanoma = test system: UACC-62 melanoma
PC-3 prostate = test system: PC-3 prostate

## N#Cc1c(-c2ccc(Cl)cc2)nc(SCc2ccc(F)cc2)nc1N1CCNCC1
HOP-62 NSCLC
  GI50: 1.64 µM
  TGI: 3.26 µM
SF-268 CNS
  GI50: 2.27 µM
  TGI: 5.82 µM
HL-60(TB) leukemia
  GI50: 1.83 µM
  TGI: 4.2 µM
CAKI-1 renal
  GI50: 1.4 µM
  TGI: 2.71 µM
SNB-75 CNS
  GI50: 1.46 µM
  TGI: 2.83 µM
MCF7 breast
  GI50: 1.65 µM
  TGI: 3.29 µM
TK-10 renal
  GI50: 10.6 µM
  TGI: 23.9 µM
OVCAR-4 ovarian
  GI50: 1.78 µM
  TGI: 4.06 µM
T-47D breast
  GI50: 1.69 µM
  TGI: 3.52 µM
NCI-H460 lung
  GI50: 1.97 µM
  TGI: 3.74 µM
SF-295 CNS
  GI50: 1.88 µM
  TGI: 3.47 µM
SK-MEL-5 melanoma
  GI50: 14.3 µM
  TGI: 29.5 µM
ACHN renal
  GI50: 1.8 µM
  TGI: 3.19 µM
NCI-H522 lung
  GI50: 1.61 µM
  TGI: 3.08 µM
MOLT-4 leukemia
  GI50: 2.43 µM
  TGI: 6.54 µM
IGROV1 ovarian
  GI50: 1.8 µM
  TGI: 3.57 µM
SK-MEL-2 melanoma
  GI50: 14.7 µM
  TGI: 29.3 µM
HCC-2998 colon
  GI50: 1.8 µM
  TGI: 3.22 µM
SN12C renal
  GI50: 1.73 µM
  TGI: 3.33 µM
LOX IMVI melanoma
  GI50: 1.7 µM
  TGI: 3.07 µM
HOP-92 NSCLC
  GI50: 1.61 µM
  TGI: 8.51 µM
SW-620 colon
  GI50: 1.98 µM
  TGI: 4.04 µM
DU-145 prostate
  GI50: 2.59 µM
  TGI: 6.54 µM
UACC-257 melanoma
  GI50: 1.64 µM
  TGI: 3.13 µM
M14 melanoma
  GI50: 1.67 µM
  TGI: 3.09 µM
K-562 leukemia
  GI50: 2.09 µM
  TGI: 5.22 µM
SF-539 CNS
  GI50: 1.71 µM
  TGI: 3.16 µM
RPMI-8226 leukemia
  GI50: 2.19 µM
  TGI: 5.23 µM
HS 578T breast
  GI50: 1.95 µM
  TGI: 4.45 µM
SNB-19 CNS
  GI50: 2.21 µM
  TGI: 6.02 µM
U251 CNS
  GI50: 1.69 µM
  TGI: 3.13 µM
MDA-MB-231 breast
  GI50: 1.83 µM
  TGI: 3.47 µM
HT29 colon
  GI50: 1.74 µM
  TGI: 3.14 µM
RXF 393 renal
  GI50: 1.53 µM
  TGI: 2.87 µM
HCT-15 colon
  GI50: 1.81 µM
  TGI: 3.45 µM
COLO 205 colon
  GI50: 1.75 µM
  TGI: 3.2 µM
BT-549 breast
  GI50: 7.59 µM
  TGI: 22.1 µM
SK-MEL-28 melanoma
  GI50: 1.74 µM
  TGI: 3.15 µM
NCI-H226 lung
  GI50: 5.97 µM
  TGI: 24.9 µM
MDA-MB-435
  GI50: 1.68 µM
  TGI: 3.05 µM
KM12 colon
  GI50: 1.91 µM
  TGI: 3.82 µM
OVCAR-3 ovarian
  GI50: 1.89 µM
  TGI: 3.71 µM
A498 renal
  GI50: 14.3 µM
  TGI: 30.1 µM
EKVX NSCLC
  GI50: 4.98 µM
  TGI: 19.7 µM
A549 NSCLC
  GI50: 1.61 µM
  TGI: 3.06 µM
SK-OV-3 ovarian
  GI50: 10.4 µM
  TGI: 24.8 µM
OVCAR-5 ovarian
  GI50: 2.2 µM
  TGI: 6.25 µM
HCT-116 colon
  GI50: 1.72 µM
  TGI: 3.09 µM
CCRF-CEM leukemia
  GI50: 2.82 µM
  TGI: 8.28 µM
UO-31 renal
  GI50: 1.4 µM
  TGI: 2.83 µM
MALME-3M melanoma
  GI50: 1.69 µM
  TGI: 3.35 µM
OVCAR-8 ovarian
  GI50: 1.84 µM
  TGI: 3.45 µM
786-0 renal
  GI50: 1.61 µM
  TGI: 3.2 µM
SR leukemia
  GI50: 1.99 µM
  TGI: 4.79 µM
NCI/ADR-RES ovarian
  GI50: 1.73 µM
  TGI: 3.28 µM
UACC-62 melanoma
  GI50: 1.76 µM
  TGI: 3.33 µM
PC-3 prostate
  GI50: 1.79 µM
  TGI: 3.75 µM
